For one assay, the target named is T1, Recombinant human GCPII (Homo sapiens, UniProt Q04609).
T1 construct: made in house
T1 sequence (Q04609 whole entry): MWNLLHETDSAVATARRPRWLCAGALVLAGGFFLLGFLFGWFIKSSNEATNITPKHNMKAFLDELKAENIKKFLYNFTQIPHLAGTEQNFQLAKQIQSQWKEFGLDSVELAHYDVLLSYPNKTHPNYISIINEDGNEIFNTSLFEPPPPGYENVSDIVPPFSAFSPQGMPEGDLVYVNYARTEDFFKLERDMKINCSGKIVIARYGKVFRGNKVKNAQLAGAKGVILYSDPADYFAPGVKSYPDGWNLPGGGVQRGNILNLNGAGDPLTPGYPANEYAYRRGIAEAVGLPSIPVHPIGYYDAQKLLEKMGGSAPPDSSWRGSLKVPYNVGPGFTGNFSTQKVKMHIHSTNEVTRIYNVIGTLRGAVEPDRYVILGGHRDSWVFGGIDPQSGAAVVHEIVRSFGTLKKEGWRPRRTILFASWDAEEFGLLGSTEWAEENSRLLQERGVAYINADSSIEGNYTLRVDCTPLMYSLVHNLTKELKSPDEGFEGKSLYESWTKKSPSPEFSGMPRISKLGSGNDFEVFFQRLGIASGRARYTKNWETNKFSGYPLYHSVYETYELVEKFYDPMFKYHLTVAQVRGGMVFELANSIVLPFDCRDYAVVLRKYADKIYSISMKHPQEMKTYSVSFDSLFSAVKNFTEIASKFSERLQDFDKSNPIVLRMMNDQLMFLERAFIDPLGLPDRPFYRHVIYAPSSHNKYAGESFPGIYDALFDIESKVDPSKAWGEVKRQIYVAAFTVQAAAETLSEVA
The assay can be described thus: In vitro GCPII inhibition assay, fluorescence-based, RP-HPLC readout (screening at 20 μM and IC50). In kind it is biochemical. To be noted: compound at 20 μM; 100 nM fluorescein-labeled Glu-Glu dipeptide substrate. The protocol:
The inhibitory potency of the selected compounds against GCPII was determined using a fluorescence-based assay developed in-house. Recombinant human GCPII purified as described previously[40],[41] (final concentration 0.02 nM) was preincubated with 20 μM test compound for the screening in 50 mM Tris-HCl, 150 mM NaCl, 0.001% C12E8 at 37 °C for 10 min. The reaction was initiated by the addition of 100 nM Glu-Glu dipeptide labeled with fluorescein (substrate)[42] in a total volume of 50 μL. Following 15 min incubation, the reaction was terminated by the addition of 5 μL of 0.1% TFA in 5% acetonitrile. […] The data were fitted using the GraphPad Prism software, and IC50 values were calculated from the inhibition curves of two independent experiments using a nonlinear analysis protocol.
Consider `CC(C)(CC(=O)Nc1scc(-c2cccs2)c1C(=O)O)CC(=O)Nc1scc(-c2cccs2)c1C(=O)O` [Compound 22], for which the “Inhibition [%] of GCPII activity” value is 38%. Same read-out and setting: to `Nc1cc(N)c(C(=O)O)cc1C(=O)O` [Compound 28] belongs 29%.

As for `O=C(O)c1cc(C(=O)O)c(C(=O)O)cc1C(=O)O` [Compound 24], the “Inhibition [%] of GCPII activity” value is listed as 33%.

Regarding `O=C(O)c1ccc(CN2CC(C(=O)O)CC2=O)cc1` (stereo not drawn) [Compound 45], the “Inhibition [%] of GCPII activity” value stood at 1%.

The same assay, now with this note: compound at 20 μM; 100 nM fluorescein-labeled Glu-Glu dipeptide substrate; read-out: Inhibition [%] of GCPII activity.
The inhibition is the change of the read-out against control, counted positive when it falls. As for `O=C(O)c1ccc(C(=O)NCc2ccccc2)c(C(=O)O)c1` [Compound 37], the inhibition at 20 µM turned out to be 1%. `CC(C)(CC(=O)Nc1scc(-c2cccs2)c1C(=O)O)CC(=O)Nc1scc(-c2cccs2)c1C(=O)O` [Compound 22]: the inhibition at 20 µM was above 25%. Still for that read-out and setting: to `O=C(/C=C/c1ccccc1)Oc1cc([S@TB3](=O)(=O)O)cc2cc([S@TB3](=O)(=O)O)ccc12` [Compound 48] belongs 16%. On the same count and under the same terms, to `COc1ccc([C@H](C)NC(=O)c2cc(C(=O)O)ccc2C(=O)O)cc1` [Compound 8] belongs 1%; to `COc1cc(C(=O)O)ccc1O[S@TB17](=O)(=O)c1ccc(F)cc1` [Compound 44], 0%; to `O=C(O)c1ccc(CNCc2ccccc2C(=O)O)cc1` [Compound 31], 8%.

Consider `Cc1cc(-c2ccc(NC(=O)CCC(=O)O)c(C)c2)ccc1NC(=O)CCC(=O)O` [Compound 29], for which the inhibition at 20 µM is 0%. Still for that read-out and setting: to `O=C(O)c1ccccc1NC(=O)[C@@H](O)[C@H](O)C(=O)O` [Compound 34] belongs 2%.

As to `O=C(O)c1ccccc1CN[C@@H](Cc1c[nH]c2ccccc12)C(=O)O` [Compound 14], the inhibition at 20 µM was determined as 0%.

For `O=C(O)CNc1ccc(C(=O)O)cc1` [Compound 33], the inhibition at 20 µM stood at 0%. Regarding `O=C(O)CN[S@TB17](=O)(=O)c1cccc(C(=O)O)c1` [Compound 32], the inhibition at 20 µM was 1%.

In the case of `O=C(O)CCNC(=O)C(F)(F)C(F)(F)C(=O)NCCC(=O)O` [Compound 1], the inhibition at 20 µM was 0%. The same measure, in the same setting: the value for `O=C(O)Cn1c(COCc2nc3ccccc3n2CC(=O)O)nc2ccccc21` [Compound 20] was 8%. Regarding `O=C(O)c1ccc(C(=O)Nc2ccc(Oc3ccccc3)cc2)c(C(=O)O)c1` [Compound 41], the inhibition at 20 µM was 0%. Still for that read-out and setting: the value for `Cc1c(C)c(CC(C(=O)O)C(=O)O)c(C)c(C)c1CC(C(=O)O)C(=O)O` [Compound 47] was 24%. On the same count and under the same terms, to `O=C(O)CCN(CCC(=O)O)c1ccccc1O` [Compound 7] belongs 12%; to `Nc1cc(N)c(C(=O)O)cc1C(=O)O` [Compound 28], above 25%; to `COc1ccc(N(CCC(=O)O)CCC(=O)O)cc1OC` [Compound 4], 2%. For `O=C(O)c1ccc(C(=O)Nc2cc(Cl)ccc2Cl)c(C(=O)O)c1` [Compound 40], the inhibition at 20 µM came to 4%. Take `O=C(O)CN[S@TB17](=O)(=O)c1ccc(C(=O)O)cc1` [Compound 19]: the inhibition at 20 µM came to 0%. As to `O=C(O)CSc1nnnn1-c1ccc(C(=O)O)cc1` [Compound 5], the inhibition at 20 µM was determined as 3%. The same measure, in the same setting: the value for `O=C(O)c1ccc(NC(=O)c2ccccc2C(=O)O)cc1O` [Compound 2] was 0%; that for `COc1ccc(OC)c(NC(=O)c2ccc(C(=O)O)cc2C(=O)O)c1` [Compound 12] was 0%; that for `O=C(O)CCCC(=O)Nc1cccc(C(=O)O)c1` [Compound 35] was 1%.

For `CC(=O)c1ccc(NC(=O)c2ccc(C(=O)O)cc2C(=O)O)cc1` [Compound 38], the inhibition at 20 µM was 0%. The same measure, in the same setting: the value for `O=C(O)CN1CCC(C(=O)O)CC1` [Compound 25] was 0%; that for `O=C(O)CCCC(=O)Nc1ccc(C(=O)O)cc1` [Compound 10] was 0%; that for `CCCCc1ccc(NC(=O)c2ccc(C(=O)O)cc2C(=O)O)cc1` [Compound 39] was 10%. On the same count and under the same terms, the value for `CCCCc1nc(Cl)c(C(=O)O)n1Cc1ccc(-c2ccccc2-c2nnn[nH]2)s1` [Compound 49] was 15%. Same read-out and setting: to `CC(C)(CC(=O)Nc1scc(-c2ccccc2)c1C(=O)O)CC(=O)Nc1scc(-c2ccccc2)c1C(=O)O` [Compound 26] belongs 18%; to `O=C(O)c1cc(C(=O)O)c(C(=O)O)cc1C(=O)O` [Compound 24], above 25%. Take `O=C(NCCCCCCNC(=O)[C@H]1CCCC[C@H]1C(=O)O)[C@H]1CCCC[C@H]1C(=O)O` [Compound 30]: the inhibition at 20 µM came out at 0%. Still for that read-out and setting: to `O=C(O)c1cccc(NC(=O)[C@H]2CC=CC[C@H]2C(=O)O)c1` [Compound 11] belongs 0%. Same read-out and setting: the value for `Cc1sc(NC(=O)c2cc(C(=O)O)ccc2C(=O)O)c(C#N)c1C` [Compound 6] was 4%. `O=C(O)c1ccc(C(=O)NCCc2ccccc2)c(C(=O)O)c1` [Compound 36]: the inhibition at 20 µM worked out at 3%. On the same count and under the same terms, to `Cc1sc(NC(=O)CC(C)(C)CC(=O)Nc2sc(C)c(C)c2C(=O)O)c(C(=O)O)c1C` [Compound 3] belongs 11%; to `CCOc1ccc(NC(=O)c2cc(C(=O)O)ccc2C(=O)O)cc1` [Compound 16], 0%; to `N#Cc1c(NC(=O)c2ccc(C(=O)O)cc2C(=O)O)sc2c1CCCC2` [Compound 15], 13%.

`O=C(O)CCN(CCC(=O)O)c1ccc(/C=C/c2ccnc3ccccc23)cc1` [Compound 27]: the inhibition at 20 µM stood at 18%.

Consider `O=C(O)CCC(=O)Nc1cc(C(=O)O)ccc1Br` [Compound 9], for which the inhibition at 20 µM was 0%. The same measure, in the same setting: the value for `COc1ccc(Cl)cc1NC(=O)c1ccc(C(=O)O)cc1C(=O)O` [Compound 13] was 0%; that for `COc1ccc([S@TB4](=O)(=O)Oc2ccc(C(=O)O)cc2)cc1` [Compound 42] was 1%. Same read-out and setting: to `O=C(O)CSc1ncccc1C(=O)O` [Compound 23] belongs 11%; to `O=C(O)CSc1nc2ccccc2n1CC(=O)O` [Compound 21], 1%.

Still in this assay, the particulars now being: read-out: Inhibition [%] of GCPII activity.
As to `O=[N+]([O-])c1ccc([S@TB4](=O)(=O)Oc2ccc(O[S@TB17](=O)(=O)c3ccc([N+](=O)[O-])cc3)c(Br)c2)cc1` [Compound 50], the inhibition at 20 µM was 1%. On the same count and under the same terms, the value for `O=[N+]([O-])c1ccc([S@TB4](=O)(=O)Oc2cccc(O[S@TB17](=O)(=O)c3ccc([N+](=O)[O-])cc3)c2)cc1` [Compound 43] was 1%.

For the next assay, the system named is GCPII.
Assay: not given
To be noted: dataset of 54 GCPII ligands compiled from the PDB; read-out: IC50[nM] (54 actives, PDB ID); cited from earlier work.
As a reminder, the IC50 is the concentration that inhibits the measured activity by half. `O=C(CC[C@H](Cc1ccc(C(=O)O)cc1)C(=O)O)NO` [Compound 5ELY]: the IC50 is 44 nM. As for `N[C@@H](CC[P@](=O)(O)C[C@@H](CCC(=O)O)C(=O)O)C(=O)O` [Compound 3BI0], the IC50 was 14 nM.

On to `O=C(O)CC[C@H](C[P@@](=O)(O)CCC(=O)O)C(=O)O` [Compound 3BHX], for which the IC50 was 0.7 nM.

As to `CN(Cc1cnc2nc(N)nc(N)c2n1)c1ccc(C(=O)N[C@H](CC[P@@](=O)(O)C[C@@H](CCC(=O)O)C(=O)O)C(=O)O)cc1` [Compound 3BI1, (2S)-2-{[(R)-[(3R)-3-carboxy-3-{[(4-{[(2,4-diaminopteridin-6-yl)methyl](methyl)amino}phenyl)carbonyl]amino}propyl](hydroxy)phosphoryl]methyl}pentanedioic acid], the IC50 was 0.12 nM. As for `O=C(O)CC[C@H](NC(=O)N[C@@H](CCCC(=O)Nc1ccc(F)cc1)C(=O)O)C(=O)O` [Compound 6H7Y], the IC50 was 0.35 nM.

Staying with this assay, now noted: dataset of 54 GCPII ligands compiled from the PDB; read-out: Ki[nM] (54 actives, PDB ID); cited from earlier work.
By Ki is commonly meant the dissociation constant of the complex between target and ligand, obtained from inhibition or displacement. Take `C#CC[C@H](NC(=O)N[C@@H](CCCCNC(=O)c1ccc(I)cc1)C(=O)O)C(=O)O` [Compound 4OC2]: the Ki is 5.3 nM. On to `CC(=O)N(CCCC[C@H](NC(=O)N[C@@H](CCC(=O)O)C(=O)O)C(=O)O)Cc1ccc(Br)cc1` [Compound 4NGM], for which the Ki was 0.0449 nM.

As for `O=C(N[C@@H](CCCCNC(=O)c1ccc(I)cc1)C(=O)O)N[C@@H](C[C@H]1CO1)C(=O)O` [Compound 4OC1], the Ki is 254 nM. Turning to `O=C(N[C@@H](CCCCNC(=O)c1ccc(I)cc1)C(=O)O)N[C@H](C(=O)O)c1ccc(O)cc1` [Compound 4OC5], the Ki was 85 nM.

Staying with this assay, now noted: listed by ChEMBL ID or PDB ID; read-out: GCPII IC50 (Fig. S20, inhibitors with subnanomolar activities); cited from earlier work.
For `O=C(O)CC[C@H](NC(=O)N[C@@H](CCCC(=O)Nc1cccc(F)c1)C(=O)O)C(=O)O` [CHEMBL4277729], the IC50 was 0.28 nM. As for `O=C(O)CC[C@H](NC(=O)N[C@@H](CCCC(=O)N(CCNC(=O)c1ccc(F)cc1)c1ccccc1)C(=O)O)C(=O)O` [CHEMBL4286872], the IC50 was 0.15 nM. With `CN(Cc1cccc(F)c1)C(=O)CCC[C@H](NC(=O)N[C@@H](CCC(=O)O)C(=O)O)C(=O)O` [CHEMBL4291245], the IC50 was 0.46 nM.

With `O=C(O)CCC(CP(=O)(O)O)C(=O)O` (stereo not drawn) [CHEMBL47009], the IC50 is […]. Take `O=C(O)CC[C@H](NP(=O)(O)O)C(=O)O` [CHEMBL241779]: the IC50 was 0.86 nM. For `O=C(O)CC[C@H](NP(=O)(O)OC[C@H](NC(=O)CC[C@H](NC(=O)CCCCCNC(=O)c1ccc(-c2c3ccc(=O)cc-3oc3cc(O)ccc23)c(C(=O)O)c1)C(=O)O)C(=O)O)C(=O)O` [CHEMBL1921899], the IC50 is 0.41 nM. With `O=C(O)CC[C@H](NC(=O)N[C@@H](CCCC(=O)NCCNC(=O)c1ccc(F)cc1)C(=O)O)C(=O)O` [CHEMBL4294773], the IC50 is 0.94 nM.
